This assay deals with T1, ProE (Pseudomonas aeruginosa, UniProt Q9HTQ9).
T1 construct: gene PA5295
Put plainly: surface plasmon resonance. Format: binding.

Each structure is given as a SMILES string.

T1 sequence (Q9HTQ9 entry or part of it): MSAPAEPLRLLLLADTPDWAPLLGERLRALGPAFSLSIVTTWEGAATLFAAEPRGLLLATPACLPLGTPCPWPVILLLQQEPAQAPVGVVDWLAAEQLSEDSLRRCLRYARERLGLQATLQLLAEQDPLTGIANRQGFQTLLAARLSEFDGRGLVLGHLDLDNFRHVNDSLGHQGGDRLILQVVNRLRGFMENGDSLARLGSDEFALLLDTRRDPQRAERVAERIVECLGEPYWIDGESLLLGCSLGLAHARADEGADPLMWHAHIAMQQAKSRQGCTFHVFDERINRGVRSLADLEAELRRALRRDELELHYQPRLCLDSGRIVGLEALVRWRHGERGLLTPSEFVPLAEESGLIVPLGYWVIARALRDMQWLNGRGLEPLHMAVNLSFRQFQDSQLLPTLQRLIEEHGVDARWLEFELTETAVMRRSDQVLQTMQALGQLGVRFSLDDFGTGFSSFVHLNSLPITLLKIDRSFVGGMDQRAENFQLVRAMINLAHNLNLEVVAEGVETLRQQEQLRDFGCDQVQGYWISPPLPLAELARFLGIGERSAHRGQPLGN

In the case of `Nc1nc2c(ncn2[C@@H]2O[C@@H]3CO[P@](=O)(O)O[C@H]4[C@@H](O)[C@H](n5cnc6c(=O)[nH]c(N)nc65)O[C@@H]4CO[P@](=O)(O)O[C@H]3[C@H]2O)c(=O)[nH]1` [c-di-GMP], the Kd worked out at 2720 nM.

The values above are taken from article PMC11852716, “c-di-GMP phosphodiesterase ProE interacts with quorum sensing protein PqsE to promote pyocyanin production in Pseudomonas aeruginosa” (mSphere, 2025).
